Results reported in PubChem BioAssay (NCI).
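Interpolation was linear, between the two tested concentrations surrounding the appropriate level; five concentrations were tested over 48 hours in 96-well plates. GI50 = concentration required for 50% inhibition of growth. The concentration for full growth arrest is given as TGI.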

What was measured:
Assay in all cases: NCI anticancer screen, dose series, 48 h; in the data active means GI50 below about 0.43 µM; inactive means the rest
CCRF-CEM leukemia = tested on: CCRF-CEM leukemia
HOP-62 NSCLC = tested on: HOP-62 NSCLC
TK-10 renal = tested on: TK-10 renal
KM12 colon = tested on: KM12 colon
SF-295 CNS = tested on: SF-295 CNS
HOP-92 NSCLC = tested on: HOP-92 NSCLC
T-47D breast = tested on: T-47D breast
SK-OV-3 ovarian = tested on: SK-OV-3 ovarian
SK-MEL-5 melanoma = tested on: SK-MEL-5 melanoma
A549 NSCLC = tested on: A549 NSCLC
DU-145 prostate = tested on: DU-145 prostate
M14 melanoma = tested on: M14 melanoma
OVCAR-3 ovarian = tested on: OVCAR-3 ovarian
EKVX NSCLC = tested on: EKVX NSCLC
A498 renal = tested on: A498 renal
MOLT-4 leukemia = tested on: MOLT-4 leukemia
786-0 renal = tested on: 786-0 renal
MDA-MB-231 breast = tested on: MDA-MB-231 breast
HCT-15 colon = tested on: HCT-15 colon
BT-549 breast = tested on: BT-549 breast
NCI-H23 lung = tested on: NCI-H23 lung
SNB-75 CNS = tested on: SNB-75 CNS
NCI-H226 lung = tested on: NCI-H226 lung
HCC-2998 colon = tested on: HCC-2998 colon
PC-3 prostate = tested on: PC-3 prostate
SK-MEL-2 melanoma = tested on: SK-MEL-2 melanoma
UACC-62 melanoma = tested on: UACC-62 melanoma
RXF 393 renal = tested on: RXF 393 renal
MCF7 breast = tested on: MCF7 breast
COLO 205 colon = tested on: COLO 205 colon
OVCAR-4 ovarian = tested on: OVCAR-4 ovarian
RPMI-8226 leukemia = tested on: RPMI-8226 leukemia
OVCAR-5 ovarian = tested on: OVCAR-5 ovarian
MDA-MB-435 = tested on: MDA-MB-435
ACHN renal = tested on: ACHN renal
NCI/ADR-RES ovarian = tested on: NCI/ADR-RES ovarian
LOX IMVI melanoma = tested on: LOX IMVI melanoma
SK-MEL-28 melanoma = tested on: SK-MEL-28 melanoma
K-562 leukemia = tested on: K-562 leukemia
UO-31 renal = tested on: UO-31 renal
HCT-116 colon = tested on: HCT-116 colon
U251 CNS = tested on: U251 CNS
SW-620 colon = tested on: SW-620 colon
CAKI-1 renal = tested on: CAKI-1 renal
UACC-257 melanoma = tested on: UACC-257 melanoma
SNB-19 CNS = tested on: SNB-19 CNS
NCI-H460 lung = tested on: NCI-H460 lung
SF-268 CNS = tested on: SF-268 CNS
OVCAR-8 ovarian = tested on: OVCAR-8 ovarian
SN12C renal = tested on: SN12C renal
MALME-3M melanoma = tested on: MALME-3M melanoma
SR leukemia = tested on: SR leukemia
HT29 colon = tested on: HT29 colon
SF-539 CNS = tested on: SF-539 CNS

Cc1ccc(C2c3c(n(C)c(=O)n(C)c3=O)OC(N(C)C)(N(C)C)C2(F)F)cc1 (centres undefined)
> 100 µM: TGI (CCRF-CEM leukemia) | TGI (HOP-62 NSCLC) | TGI (TK-10 renal) | TGI (KM12 colon) | TGI (SF-295 CNS) | TGI (HOP-92 NSCLC) | TGI (T-47D breast) | TGI (SK-OV-3 ovarian) | TGI (SK-MEL-5 melanoma) | TGI (A549 NSCLC) | TGI (DU-145 prostate) | TGI (M14 melanoma) | TGI (OVCAR-3 ovarian) | TGI (EKVX NSCLC) | TGI (A498 renal) | TGI (MOLT-4 leukemia) | TGI (786-0 renal) | TGI (MDA-MB-231 breast) | TGI (HCT-15 colon) | TGI (BT-549 breast) | TGI (NCI-H23 lung) | TGI (SNB-75 CNS) | TGI (NCI-H226 lung) | TGI (HCC-2998 colon) | TGI (PC-3 prostate) | TGI (SK-MEL-2 melanoma) | TGI (UACC-62 melanoma) | TGI (RXF 393 renal) | TGI (MCF7 breast) | TGI (COLO 205 colon) | TGI (OVCAR-4 ovarian) | TGI (RPMI-8226 leukemia) | TGI (OVCAR-5 ovarian) | TGI (MDA-MB-435) | TGI (ACHN renal) | TGI (NCI/ADR-RES ovarian) | TGI (LOX IMVI melanoma) | TGI (SK-MEL-28 melanoma) | TGI (K-562 leukemia) | TGI (UO-31 renal) | TGI (HCT-116 colon) | TGI (U251 CNS) | TGI (SW-620 colon) | TGI (CAKI-1 renal) | TGI (UACC-257 melanoma) | TGI (SNB-19 CNS) | TGI (NCI-H460 lung) | TGI (SF-268 CNS)

Cc1cc(C)c(C#N)c(SC(=S)NC(=O)c2ccc(Cl)cc2)n1
> 100 µM: TGI (CCRF-CEM leukemia) | TGI (HOP-62 NSCLC) | TGI (TK-10 renal) | TGI (KM12 colon) | TGI (SF-295 CNS) | TGI (HOP-92 NSCLC) | TGI (T-47D breast) | TGI (SK-OV-3 ovarian) | TGI (SK-MEL-5 melanoma) | TGI (A549 NSCLC) | TGI (DU-145 prostate) | TGI (M14 melanoma) | TGI (OVCAR-3 ovarian) | TGI (EKVX NSCLC) | TGI (A498 renal) | TGI (786-0 renal) | TGI (MDA-MB-231 breast) | TGI (HCT-15 colon) | TGI (BT-549 breast) | TGI (NCI-H23 lung) | TGI (SNB-75 CNS) | TGI (HCC-2998 colon) | TGI (PC-3 prostate) | TGI (SK-MEL-2 melanoma) | TGI (UACC-62 melanoma) | TGI (RXF 393 renal) | TGI (MCF7 breast) | TGI (COLO 205 colon) | TGI (OVCAR-4 ovarian) | TGI (RPMI-8226 leukemia) | TGI (OVCAR-5 ovarian) | TGI (MDA-MB-435) | TGI (ACHN renal) | TGI (OVCAR-8 ovarian) | TGI (NCI/ADR-RES ovarian) | TGI (LOX IMVI melanoma) | TGI (SK-MEL-28 melanoma) | TGI (UO-31 renal) | TGI (HCT-116 colon) | TGI (U251 CNS) | TGI (SW-620 colon) | TGI (CAKI-1 renal) | TGI (UACC-257 melanoma) | TGI (SNB-19 CNS) | TGI (NCI-H460 lung) | TGI (SF-268 CNS)

CCCCCCNC(=O)Nc1ccc2cc3ccc(NC(=O)NCCCCCC)cc3nc2c1
1.57 µM: TGI (MCF7 breast)
> 100 µM: TGI (TK-10 renal) | TGI (DU-145 prostate) | TGI (EKVX NSCLC) | TGI (HCT-15 colon) | TGI (BT-549 breast) | TGI (NCI-H226 lung) | TGI (ACHN renal) | TGI (NCI/ADR-RES ovarian) | TGI (UO-31 renal) | TGI (CAKI-1 renal) | TGI (HT29 colon)
0.714 µM: TGI (CCRF-CEM leukemia)
1.51 µM: TGI (MDA-MB-435)
3.12 µM: TGI (MALME-3M melanoma)
active: GI50 (CCRF-CEM leukemia) 0.258 µM | GI50 (SR leukemia) 0.284 µM | GI50 (MCF7 breast) 0.396 µM | GI50 (MDA-MB-435) 0.406 µM | GI50 (LOX IMVI melanoma) 0.268 µM | GI50 (HCT-116 colon) 0.358 µM | GI50 (U251 CNS) 0.336 µM
0.737 µM: TGI (LOX IMVI melanoma)
4.07 µM: TGI (HOP-92 NSCLC)
inactive: GI50 (HOP-62 NSCLC) 1.81 µM | GI50 (TK-10 renal) 23.5 µM | GI50 (SF-295 CNS) 2.32 µM | GI50 (HOP-92 NSCLC) 1.67 µM | GI50 (SN12C renal) 1.08 µM | GI50 (DU-145 prostate) 2 µM | GI50 (EKVX NSCLC) 5.79 µM | GI50 (A498 renal) 1.88 µM | GI50 (786-0 renal) 2.52 µM | GI50 (MDA-MB-231 breast) 1.54 µM | GI50 (HCT-15 colon) > 100 µM | GI50 (BT-549 breast) 4.09 µM | GI50 (SNB-75 CNS) 1.45 µM | GI50 (NCI-H226 lung) 4.95 µM | GI50 (MALME-3M melanoma) 1.63 µM | GI50 (SK-MEL-2 melanoma) 1.9 µM | GI50 (UACC-62 melanoma) 1.21 µM | GI50 (RXF 393 renal) 1.4 µM | GI50 (ACHN renal) 43.5 µM | GI50 (OVCAR-8 ovarian) 0.614 µM | GI50 (NCI/ADR-RES ovarian) 83.7 µM | GI50 (SK-MEL-28 melanoma) 1.72 µM | GI50 (UO-31 renal) > 100 µM | GI50 (CAKI-1 renal) > 26.5 µM | GI50 (HT29 colon) 2.24 µM | GI50 (SNB-19 CNS) 1.73 µM | GI50 (SF-539 CNS) 1.58 µM | GI50 (SF-268 CNS) 1.2 µM
1.29 µM: TGI (U251 CNS)
2.88 µM: TGI (OVCAR-8 ovarian)
4.88 µM: TGI (HOP-62 NSCLC)
2.51 µM: TGI (SN12C renal)
> 28.7 µM: TGI (A498 renal)
6.04 µM: TGI (SF-295 CNS)
1.27 µM: TGI (SR leukemia)
> 26.6 µM: TGI (786-0 renal)
3.16 µM: TGI (SNB-75 CNS)
4.01 µM: TGI (SK-MEL-2 melanoma)
3.36 µM: TGI (SNB-19 CNS)
5.51 µM: TGI (RXF 393 renal)
3.11 µM: TGI (MDA-MB-231 breast)
3.14 µM: TGI (SK-MEL-28 melanoma)
1.25 µM: TGI (HCT-116 colon)
3 µM: TGI (SF-539 CNS)
2.96 µM: TGI (SF-268 CNS)
2.53 µM: TGI (UACC-62 melanoma)
